The values that follow come from patent US7615643B2 (SmithKline Beecham Corporation, priority 2006, dated 2009).

In the test the target is T1, PLK1 (Homo sapiens, UniProt P53350).
T1 construct: PLK kinase domain (amino acids 21-346 preceded by MKKGHHHHHHD); made in house; host or cells: baculovirus infected T. ni cells
The test can be described thus: Assay for inhibition of PLK1 (SPA kinase assay). The class given is biochemical. Particulars: 1 μM ATP, 2 nM PLK1 kinase domain, read-out: PLK1 pIC50 (converted). In outline:
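His-tagged PLK1 kinase domain (aa 21-346, baculovirus/T. ni) at 2 nM with 1 μM ATP plus 33P-γ-ATP and 1 μM biotinylated peptide in 25 mM HEPES pH 7.2, 15 mM MgCl2, 1 mM DTT, 0.15 mg/mL BSA; 1-1.5 h at 22° C. Streptavidin SPA capture read; percent inhibition versus DMSO, EDTA background.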

T1 sequence (P53350 21-346): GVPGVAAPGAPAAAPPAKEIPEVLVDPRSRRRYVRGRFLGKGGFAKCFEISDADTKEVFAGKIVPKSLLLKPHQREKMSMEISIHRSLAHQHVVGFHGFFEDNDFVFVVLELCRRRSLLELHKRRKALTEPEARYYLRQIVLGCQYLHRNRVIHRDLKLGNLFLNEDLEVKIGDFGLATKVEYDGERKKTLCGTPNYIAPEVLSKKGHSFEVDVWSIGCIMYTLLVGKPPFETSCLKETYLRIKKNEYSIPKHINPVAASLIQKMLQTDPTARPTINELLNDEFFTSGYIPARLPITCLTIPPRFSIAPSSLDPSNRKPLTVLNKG

In the case of `CC(Oc1cc(-n2cnc3cc(-c4cnn(C)c4)ccc32)sc1C(N)=O)c1ccnc(OC2CCN(C)CC2)n1` (racemic) [Example 78, (+/−)-3-[(1-{2-[(1-methyl-4-piperidinyl)oxy]-4-pyrimidinyl}ethyl)oxy]-5-[5-(1-methyl-1H-pyrazol-4-yl)-1H-benzimidazol-1-yl]-2-thiophenecarboxamide], the IC50 was 100 to 1000 nM.
`C[C@@H](Oc1cc(-n2cnc3ccc(Br)cc32)sc1C(N)=O)c1cccc(OC2CCNCC2)c1Cl` [Example 7, 5-(6-Bromo-1H-benzimidazol-1-yl)-3-({(1R)-1-[2-chloro-3-(4-piperidinyloxy)phenyl]ethyl}oxy)-2-thiophenecarboxamide]: the IC50 was under 100 nM.
Then `Cc1nnc(-c2ccc3c(c2)ncn3-c2cc(O[C@H](C)c3cccc(OC4CCN(C)CC4)c3Cl)c(C(N)=O)s2)o1` [Example 88, 3-[((1R)-1-{2-chloro-3-[(1-methyl-4-piperidinyl)oxy]phenyl}ethyl)oxy]-5-[5-(5-methyl-1,3,4-oxadiazol-2-yl)-1H-benzimidazol-1-yl]-2-thiophenecarboxamide], with under 100 nM.
For the compound `C[C@@H](Oc1cc(-n2cnc3cc(-c4cnn(C)c4)ccc32)sc1C(N)=O)c1c(F)ccc(OC2CCN(C)CC2)c1Cl` [Example 38, 3-[((1R)-1-{2-Chloro-6-fluoro-3-[(1-methyl-4-piperidinyl)oxy]phenyl}ethyl)oxy]-5-[5-(1-methyl-1H-pyrazol-4-yl)-1H-benzimidazol-1-yl]-2-thiophenecarboxamide], the IC50 is under 100 nM.
The figure for `C[C@@H](Oc1cc(-n2cnc3cc(-c4cccnc4)ccc32)sc1C(N)=O)c1cccc(OC2CCN(C)CC2)c1Cl` [Example 11, 3-[((1R)-1-{2-chloro-3-[(1-methyl-4-piperidinyl)oxy]pheny}ethyl)oxy]-5-[5-(3-pyridinyl)-1H-benzimidazol-1-yl]-2-thiopnenecarboxamide] is under 100 nM; for `COc1cc2ncn(-c3cc(O[C@H](C)c4cccc(OCCN5CCN(C)CC5)c4Cl)c(C(N)=O)s3)c2cc1OC` [Example 42, 5-[5,6-Bis(methyloxy)-1H-benzimidazol-1-yl]-3-{[(1R)-1-(2-chloro-3-{[2-(4-methyl-1-piperazinyl)ethyl]oxy}phenyl)ethyl]oxy}-2-thiophenecarboxamide] it is under 100 nM; for `C[C@@H](Oc1cc(-n2cnc3ccc(Br)cc32)sc1C(N)=O)c1cccc(OC2CCN(C)CC2)c1Cl` [Example 6, 5-(6-Bromo-1H-benzimidazol-1-yl)-3-[((1R)-1-{2-chloro-3-[(1-methyl-4-piperidinyl)oxy]phenyl}ethyl)oxy]-2-thiophenecarboxamide] it is under 100 nM.
Then `CC(Oc1cc(-n2cnc3cc(-c4cnn(C)c4)ccc32)sc1C(N)=O)c1cccc(OC2CCNCC2)n1` (racemic) [Example 81, (+/−)-5-[5-(1-Methyl-1H-pyrazol-4-yl)-1H-benzimidazol-1-yl]-3-({1-[6-(4-piperidinyloxy)-2-pyridinyl]ethyl}oxy)-2-thiophenecarboxamide], with under 100 nM; and `C[C@@H](Oc1cc(-n2cnc3cc(Cl)ccc32)sc1C(N)=O)c1cccc(OC2CCN(CCS(C)(=O)=O)CC2)c1Cl` [Example 23, 5-(5-Chloro-1H-benzimidazol-1-yl)-3-({(1R)-1-[2-chloro-3-({1-[2-(methylsulfonyl)ethyl]-4-piperidinyl}oxy)phenyl]ethyl}oxy)-2-thiophenecarboxamide], with under 100 nM.
`COc1cc2ncn(-c3cc(O[C@H](C)c4cccc(NCC5CCNCC5)c4Cl)c(C(N)=O)s3)c2cc1OC` [Example 1, 5-[5,6-Bis(methyloxy)-1H-benzimidazol-1-yl]-3-[((1R)-1-{2-chloro-3-[(4-piperidinylmethyl)amino]phenyl}ethyl)oxy]-2-thiophenecarboxamide]: the IC50 was under 100 nM.
